Test results published in PubChem BioAssay (NCI).
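Assay format: 96-well plates, 48-hour exposure. Abbreviation: GI50, concentration required for 50% inhibition of growth. Definition used: TGI = concentration required for complete inhibition of growth.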

Key:
Test in all cases: inhibition of tumour cell growth, NCI panel, 48 h
[1] = system: PC-3 prostate
[2] = system: MALME-3M melanoma
[3] = system: K-562 leukemia
[4] = system: SF-295 CNS
[5] = system: MDA-N
[6] = system: OVCAR-4 ovarian
[7] = system: SNB-19 CNS
[8] = system: OVCAR-5 ovarian
[9] = system: UO-31 renal
[10] = system: ACHN renal
[11] = system: HS 578T breast
[12] = system: MCF7 breast
[13] = system: SK-MEL-2 melanoma
[14] = system: CAKI-1 renal
[15] = system: CCRF-CEM leukemia
[16] = system: UACC-257 melanoma
[17] = system: SK-MEL-5 melanoma
[18] = system: COLO 205 colon
[19] = system: HOP-92 NSCLC

SMILES	TGI [1] [µM]	TGI [2] [µM]	TGI [3] [µM]	TGI [4] [µM]	TGI [5] [µM]	TGI [6] [µM]	TGI [7] [µM]	TGI [8] [µM]	TGI [9] [µM]	TGI [10] [µM]	TGI [11] [µM]	TGI [12] [µM]	TGI [13] [µM]	TGI [14] [µM]	TGI [15] [µM]	TGI [16] [µM]	TGI [17] [µM]	TGI [18] [µM]	TGI [19] [µM]	GI50 [15] [µM]
CCOC(=O)N1CC2(C(=O)OC)C=CC1C(C(=O)OC)C2 (stereo unspecified)	> 100	> 100	> 100	> 100	> 100	> 100	> 100	> 100	> 100	> 100	> 100	> 100	> 100	> 100	> 100	> 100	> 100	> 100	–	–
COC(=O)[C@@]12CC[C@]1(C(=O)OC)C1C(C)=CC(=O)O[C@@]12C (stereo partly specified)	> 100	> 100	> 100	> 100	> 100	> 100	> 100	> 100	> 100	> 100	> 100	> 100	–	–	> 100	> 100	> 100	> 100	> 100	–
CC(=O)c1ccc(N2CCN(c3c(O)c4c(c(O)c3Cl)C(=O)C=CC4=O)CC2)cc1	19.1	23.5	7.1	33.9	10.8	10.8	35.7	33	22.9	–	–	2.8	–	11.8	2.07	24.1	20.3	8.91	5.13	–
Cn1c(=O)oc2cc(C(=S)N3CCC(Cc4ccccc4)CC3)ccc21	> 100	> 100	> 100	> 100	> 100	–	> 100	> 100	–	> 100	> 100	> 100	> 100	> 100	> 100	> 100	> 100	> 100	–	–
CCCCCCc1cc2cc(C(=O)Nc3ccccc3F)c(=N)oc2cc1O	26.8	57.6	> 100	33	24	22.4	56.2	50.9	17.5	25.6	63.8	39.1	26.8	22.9	21.7	42.2	12.8	39.3	–	–
O=c1c2c(sc3ccccc13)NCN(CCc1ccccc1)C2	> 100	> 100	40.8	43.5	59.7	> 100	> 100	> 100	> 100	> 100	–	> 100	75.4	> 100	> 100	> 100	29	37	> 100	–
CC(=O)c1c2c(cc3c1CC1(Cc4cc5c(cc4C1=O)CCC5)C3)CCC2 (stereo unspecified)	> 100	> 100	> 100	> 100	> 100	> 100	> 100	> 100	> 100	> 100	> 100	> 100	> 100	> 100	> 73.7	> 100	> 69.4	> 100	–	–
OC(c1ccsc1)c1cc2ccccc2s1 (stereo unspecified)	> 10	–	> 10	> 10	> 10	> 10	> 10	> 10	> 10	> 10	> 10	> 10	> 10	> 10	> 10	> 10	> 10	> 10	> 10	–
CSC(=NC1CC(n2cc(C)c(=O)[nH]c2=O)OC1CO)NC#N (stereo unspecified)	> 100	> 100	> 100	> 100	> 100	> 100	> 100	> 100	> 100	> 100	–	> 100	> 100	> 100	> 100	> 100	> 100	> 100	> 100	–
O=c1n(CCCN2CCN(c3cccc(Cl)c3)CC2)nc2n1-c1ccc3ccccc3c1SC2	> 100	–	> 100	> 100	> 100	> 100	> 100	> 100	–	–	> 100	> 100	> 100	> 100	> 100	> 100	> 100	> 100	> 100	–
C=CC1(c2ccc3ccccc3c2)OCC(CC)(CC)CO1	65.5	49.1	48.1	65.2	65.8	> 100	36.3	38.5	86.1	38.8	41.6	56.2	34.7	–	40.1	64.2	34	31.8	52	–
C=C[C@@]1(C)CC2CC[C@]3(C)C(C)=CC(=O)CC3[C@]2(C)CC1O (stereo partly specified)	> 100	> 100	> 100	> 100	–	> 100	> 100	> 100	> 100	> 100	> 100	> 100	> 100	> 100	> 100	> 100	> 100	> 100	> 100	–
Cn1c(=O)cc(NNc2ccc(Br)cc2)[nH]c1=O	22.1	31.4	> 100	26.2	28.6	30.3	26.5	26.2	30	29.9	9.34	26.8	–	–	> 100	29.1	30.2	13.7	27.7	–
CC(C)(C)[Si](C)(C)OCC1OC(n2cc(F)c(=O)[nH]c2=O)CC1O[Si](C)(C)C(C)(C)C (stereo unspecified)	14.2	31.2	16	21.4	18.4	17.4	25.3	33	23	21.8	26.4	24.9	29.7	25.6	10.2	15.9	17.1	19.5	–	–
C/C(O)=C(/C=N\C(=S)Nc1ccc(Cl)c(Cl)c1)C(=O)Nc1ccccc1C	–	–	–	> 100	> 100	76.5	84.2	> 100	> 100	> 100	–	> 100	> 100	95.7	–	> 100	44	> 100	58.1	–
O=c1[nH]c(=O)n(C2CC(O)C(COP(=O)(O)OC3CC(n4cc(F)c(=O)[nH]c4=O)OC3COP(=O)(O)OC3CC(n4cc(F)c(=O)[nH]c4=O)OC3COP(=O)(O)OC3CC(n4cc(F)c(=O)[nH]c4=O)OC3COP(=O)(O)OC3CC(n4cc(F)c(=O)[nH]c4=O)OC3COP(=O)(O)OC3CC(n4cc(F)c(=O)[nH]c4=O)OC3COP(=O)(O)OC3CC(n4cc(F)c(=O)[nH]c4=O)OC3COP(=O)(O)OC3CC(n4cc(F)c(=O)[nH]c4=O)OC3COP(=O)(O)OC3CC(n4cc(F)c(=O)[nH]c4=O)OC3COP(=O)(O)OC3CC(n4cc(F)c(=O)[nH]c4=O)OC3CO)O2)cc1F (stereo unspecified)	> 50	–	> 50	> 10	> 50	> 50	> 50	> 50	> 50	> 50	> 50	> 50	> 50	> 50	–	> 50	> 50	> 50	> 50	–
Oc1ccc(-c2c3ccccc3c(-c3ccc(OCCBr)cc3)c3ccccc23)cc1	73.2	33.8	97.4	32.7	59.8	58.3	84.3	> 100	> 100	90.7	82.2	32	63.5	67.1	> 100	54.5	36.3	96.9	–	–
Nc1ncnc2c1ncn2[C@@H]1C[C@H]1CO	> 100	> 100	> 100	> 100	> 100	–	> 100	> 100	> 100	> 100	> 100	> 100	> 100	–	> 100	> 100	–	–	–	–
CC1CC(=O)N2CCCNC2=C1C#N (stereo unspecified)	> 100	> 100	> 100	> 100	> 100	> 100	> 100	–	> 100	–	> 100	> 100	> 100	> 100	> 100	> 100	> 100	> 100	–	–
COc1ccc(N2C(=O)CSC2c2cc3cc(Br)ccc3nc2Cl)cc1 (stereo unspecified)	> 50	> 50	> 50	> 50	–	> 50	> 50	> 50	> 50	> 50	> 50	> 50	> 50	> 50	> 50	> 50	> 50	> 50	> 50	–
COC(=O)c1ccccc1/C=C1\Cc2cc3c(cc2C1=O)CCC3	> 100	> 100	–	> 100	78.8	> 100	> 100	> 100	> 100	> 100	–	> 100	> 100	> 100	–	> 100	> 100	> 100	–	–
O=C(O)Cn1nnc2c(=O)[nH][nH]c(=O)c21	–	> 100	> 10	> 100	> 100	> 10	> 100	> 100	> 100	> 100	–	> 100	> 100	> 100	> 100	> 100	> 100	> 100	> 100	–
CCCCCCNC(=O)c1cc(C#Cc2cc(OC)ccc2OC)ccc1OC	> 100	–	> 100	> 100	> 100	> 100	> 100	> 100	> 100	> 100	> 100	> 100	> 100	> 100	> 100	> 100	> 100	> 100	> 100	7.9
NC(=O)Cc1ncn(-c2ccccc2)n1	–	> 100	> 100	> 100	> 100	–	> 100	> 100	> 100	> 100	> 100	> 100	> 100	> 100	> 100	> 100	> 100	> 100	> 100	–
Cc1cccc2nc3n(c12)C(=O)c1ccccc1-3	> 100	> 100	> 100	> 100	> 100	> 100	> 100	> 100	> 100	> 100	–	> 100	> 100	> 100	> 100	> 100	–	> 100	> 100	–
CCN(CC)CCCC(C)NC(=O)c1cc(-c2nccn2C)nc2ccc(C)cc12 (stereo unspecified)	> 100	> 100	–	–	> 100	> 100	> 100	> 100	> 100	> 100	–	> 100	> 100	> 100	–	> 100	> 100	> 100	> 100	–
